Assay results taken from PMC4639830, “Inhibition of DYRK1A and GSK3B induces human β-cell proliferation” (Nature Communications, 2015).

Assays:
Test in all cases: Kinase profiling
Format in all cases: biochemical
[1] = biological target: T1, p38delta (MAPK13) (Homo sapiens, UniProt O15264); details: Conc 1000 nM; read-out: Percent inhibition, p38delta (MAPK13)
T1 construct: purchased Ambit (KINOMEscan)
Excerpt: (§1) ; Fig. 5a; Supplementary Table 1). We focused on Dyrk1a because other kinases inhibited by aminopyrazine compounds were not highly expressed in β-cells and because Dyrk1a was known to inhibit the NFAT pathway that was previously implicated in β-cell proliferation. We used molecular modelling to dock the aminopyrazine compounds into the published structure of Dyrk1a (protein databank accession code 2vx3.pdb; Fig. 5b).

[2] = biological target: T2, AURORA-B (Homo sapiens, UniProt Q96GD4); details: Conc 1000 nM; read-out: Percent inhibition, AURORA-B
T2 construct: purchased Ambit KINOMEscan
Excerpt: as §1

[3] = biological target: T3, MEK1 (Homo sapiens, UniProt Q02750); details: Conc 1000 nM; read-out: Percent inhibition, MEK1
T3 construct: purchased Ambit (KINOMEscan)
Excerpt: as §1

[4] = biological target: T4, ErbB4 (HER4) (Homo sapiens, UniProt Q15303); details: Conc 1000 nM; read-out: Percent inhibition, ErbB4 (HER4)
T4 construct: purchased Ambit KINOMEscan
Excerpt: as §1

[5] = biological target: T5, PKCalpha (Homo sapiens, UniProt P17252); details: read-out: Percent inhibition, PKCalpha; for inhibition at 1 µM: Conc 1000 nM
T5 construct: purchased Ambit (KINOMEscan)
Excerpt: as §1

[6] = biological target: T6, TRKA (NTRK1) (Homo sapiens, UniProt P04629); details: read-out: Percent inhibition, TRKA (NTRK1); for inhibition at 1 µM: Conc 1000 nM
T6 construct: purchased Ambit (KINOMEscan)
Excerpt: as §1

[7] = biological target: T7, EphB3 (Homo sapiens, UniProt P54753); details: Conc 1000 nM; read-out: Percent inhibition, EphB3
T7 construct: purchased Ambit KINOMEscan
Excerpt: as §1

[8] = biological target: T8, CDK2/cyclinA (Homo sapiens, UniProt P24941); details: read-out: Percent inhibition, CDK2/cyclinA; for inhibition at 1 µM: Conc 1000 nM
T8 construct: purchased Ambit KINOMEscan
Excerpt: as §1

[9] = biological target: T9, bRAF (Homo sapiens, UniProt P15056); details: Conc 1000 nM; read-out: Percent inhibition, bRAF
T9 construct: purchased Ambit KINOMEscan
Excerpt: as §1

[10] = biological target: T10, EphA3 (Homo sapiens, UniProt P29320); details: Conc 1000 nM; read-out: Percent inhibition, EphA3
T10 construct: purchased Ambit KINOMEscan
Excerpt: as §1

[11] = biological target: T11, PIM-2 (Homo sapiens, UniProt Q9P1W9); details: Conc 1000 nM; read-out: Percent inhibition, PIM-2
T11 construct: purchased Ambit (KINOMEscan)
Excerpt: as §1

[12] = biological target: T12, PI3Ka (Homo sapiens, UniProt P42336); details: Conc 1000 nM; read-out: Percent inhibition, PI3Ka
T12 construct: purchased Ambit (KINOMEscan)
Excerpt: as §1

[13] = biological target: T13, IKKb (Homo sapiens, UniProt O14920); details: Conc 1000 nM; read-out: Percent inhibition, IKKb
T13 construct: purchased Ambit KINOMEscan
Excerpt: as §1

[14] = biological target: T14, Abl (Homo sapiens, UniProt P00519); details: Conc 1000 nM; read-out: Percent inhibition, Abl
T14 construct: purchased Ambit KINOMEscan
Excerpt: as §1

[15] = biological target: T15, ROS (Homo sapiens, UniProt P08922); details: read-out: Percent inhibition, ROS; for inhibition at 1 µM: Conc 1000 nM
T15 construct: purchased Ambit (KINOMEscan)
Excerpt: as §1

[16] = biological target: T16, ALK (Homo sapiens, UniProt Q9UM73); details: read-out: Percent inhibition, ALK; for inhibition at 1 µM: Conc 1000 nM
T16 construct: purchased Ambit KINOMEscan
Excerpt: as §1

[17] = biological target: T17, ROCK1 (Homo sapiens, UniProt Q13464); details: Conc 1000 nM; read-out: Percent inhibition, ROCK1
T17 construct: purchased Ambit (KINOMEscan)
Excerpt: as §1

[18] = biological target: T18, BTK (Homo sapiens, UniProt Q06187); details: Conc 1000 nM; read-out: Percent inhibition, BTK
T18 construct: purchased Ambit KINOMEscan
Excerpt: as §1

[19] = biological target: T19, RET (Homo sapiens, UniProt P07949); details: read-out: Percent inhibition, RET; for inhibition at 1 µM: Conc 1000 nM
T19 construct: purchased Ambit (KINOMEscan)
Excerpt: as §1

[20] = biological target: T20, BMX (Homo sapiens, UniProt P51813); details: Conc 1000 nM; read-out: Percent inhibition, BMX
T20 construct: purchased Ambit KINOMEscan
Excerpt: as §1

[21] = biological target: T21, IRAK4 (Homo sapiens, UniProt Q9NWZ3); details: Conc 1000 nM; read-out: Percent inhibition, IRAK4
T21 construct: purchased Ambit KINOMEscan
Excerpt: as §1

[22] = biological target: T22, CSK (Homo sapiens, UniProt P41240); details: Conc 1000 nM; read-out: Percent inhibition, CSK
T22 construct: purchased Ambit KINOMEscan
Excerpt: as §1

[23] = biological target: T23, JAK2 (Homo sapiens, UniProt O60674); details: read-out: Percent inhibition, JAK2; for inhibition at 1 µM: Conc 1000 nM
T23 construct: purchased Ambit KINOMEscan
Excerpt: as §1

[24] = biological target: T24, SGK1 (Homo sapiens, UniProt O00141); details: Conc 1000 nM; read-out: Percent inhibition, SGK1
T24 construct: purchased Ambit (KINOMEscan)
Excerpt: as §1

[25] = biological target: T25, TTK (Homo sapiens, UniProt P33981); details: Conc 1000 nM; read-out: Percent inhibition, TTK
T25 construct: purchased Ambit (KINOMEscan)
Excerpt: as §1

[26] = biological target: T26, EGFR (Homo sapiens, UniProt P00533); details: Conc 1000 nM; read-out: Percent inhibition, EGFR
T26 construct: purchased Ambit KINOMEscan
Excerpt: as §1

[27] = biological target: T27, InsR (Homo sapiens, UniProt P06213); details: Conc 1000 nM; read-out: Percent inhibition, InsR
T27 construct: purchased Ambit KINOMEscan
Excerpt: as §1

[28] = biological target: T28, CHEK1 (Homo sapiens, UniProt O14757); details: Conc 1000 nM; read-out: Percent inhibition, CHEK1
T28 construct: purchased Ambit KINOMEscan
Excerpt: as §1

[29] = biological target: T29, PDK1 (Homo sapiens, UniProt O15530); details: Conc 1000 nM; read-out: Percent inhibition, PDK1
T29 construct: purchased Ambit (KINOMEscan)
Excerpt: as §1

[30] = biological target: T30, KDR (VEGFR2, FLK1) (Homo sapiens, UniProt P35968); details: read-out: Percent inhibition, KDR (VEGFR2, FLK1); for inhibition at 1 µM: Conc 1000 nM
T30 construct: purchased Ambit KINOMEscan
Excerpt: as §1

T16 sequence (Q9UM73 19-1620): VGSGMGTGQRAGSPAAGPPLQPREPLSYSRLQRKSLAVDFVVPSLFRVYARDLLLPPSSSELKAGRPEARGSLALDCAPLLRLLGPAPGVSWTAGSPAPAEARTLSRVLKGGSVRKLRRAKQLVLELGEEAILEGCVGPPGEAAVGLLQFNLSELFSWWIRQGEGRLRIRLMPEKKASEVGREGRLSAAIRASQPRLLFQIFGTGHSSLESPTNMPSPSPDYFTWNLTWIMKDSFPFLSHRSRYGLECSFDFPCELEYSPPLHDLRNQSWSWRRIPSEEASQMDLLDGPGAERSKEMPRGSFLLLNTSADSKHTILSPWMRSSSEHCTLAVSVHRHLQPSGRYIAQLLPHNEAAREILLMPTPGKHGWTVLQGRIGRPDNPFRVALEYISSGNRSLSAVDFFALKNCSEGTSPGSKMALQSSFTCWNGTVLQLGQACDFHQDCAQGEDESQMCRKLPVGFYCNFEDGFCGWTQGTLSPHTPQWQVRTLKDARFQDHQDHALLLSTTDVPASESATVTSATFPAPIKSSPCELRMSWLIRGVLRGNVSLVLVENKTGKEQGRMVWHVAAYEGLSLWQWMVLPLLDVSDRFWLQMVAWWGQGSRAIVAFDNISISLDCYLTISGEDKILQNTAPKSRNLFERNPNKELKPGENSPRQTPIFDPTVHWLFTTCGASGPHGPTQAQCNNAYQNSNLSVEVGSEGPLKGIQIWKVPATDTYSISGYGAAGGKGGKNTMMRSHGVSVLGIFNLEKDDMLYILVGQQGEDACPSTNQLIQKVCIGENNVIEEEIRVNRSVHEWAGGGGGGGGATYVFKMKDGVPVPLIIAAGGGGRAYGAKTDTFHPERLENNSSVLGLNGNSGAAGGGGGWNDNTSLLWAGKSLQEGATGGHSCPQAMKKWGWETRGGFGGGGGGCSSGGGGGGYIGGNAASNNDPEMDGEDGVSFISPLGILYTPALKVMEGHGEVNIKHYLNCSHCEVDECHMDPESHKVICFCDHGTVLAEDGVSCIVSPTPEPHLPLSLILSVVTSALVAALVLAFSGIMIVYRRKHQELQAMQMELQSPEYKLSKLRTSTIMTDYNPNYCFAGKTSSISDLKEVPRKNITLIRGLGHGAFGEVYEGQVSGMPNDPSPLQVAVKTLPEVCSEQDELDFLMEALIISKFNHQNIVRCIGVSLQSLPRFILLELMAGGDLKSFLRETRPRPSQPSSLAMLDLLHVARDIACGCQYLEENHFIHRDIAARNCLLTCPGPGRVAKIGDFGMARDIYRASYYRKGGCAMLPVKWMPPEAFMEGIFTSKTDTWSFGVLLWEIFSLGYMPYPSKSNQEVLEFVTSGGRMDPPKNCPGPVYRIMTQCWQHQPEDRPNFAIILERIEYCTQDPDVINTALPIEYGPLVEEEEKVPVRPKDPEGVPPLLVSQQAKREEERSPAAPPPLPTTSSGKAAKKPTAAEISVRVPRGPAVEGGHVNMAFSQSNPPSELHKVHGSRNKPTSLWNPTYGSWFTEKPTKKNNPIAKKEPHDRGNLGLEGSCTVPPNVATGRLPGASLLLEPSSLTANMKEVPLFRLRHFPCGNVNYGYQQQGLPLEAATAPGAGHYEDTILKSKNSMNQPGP
T23 sequence (O60674 whole entry): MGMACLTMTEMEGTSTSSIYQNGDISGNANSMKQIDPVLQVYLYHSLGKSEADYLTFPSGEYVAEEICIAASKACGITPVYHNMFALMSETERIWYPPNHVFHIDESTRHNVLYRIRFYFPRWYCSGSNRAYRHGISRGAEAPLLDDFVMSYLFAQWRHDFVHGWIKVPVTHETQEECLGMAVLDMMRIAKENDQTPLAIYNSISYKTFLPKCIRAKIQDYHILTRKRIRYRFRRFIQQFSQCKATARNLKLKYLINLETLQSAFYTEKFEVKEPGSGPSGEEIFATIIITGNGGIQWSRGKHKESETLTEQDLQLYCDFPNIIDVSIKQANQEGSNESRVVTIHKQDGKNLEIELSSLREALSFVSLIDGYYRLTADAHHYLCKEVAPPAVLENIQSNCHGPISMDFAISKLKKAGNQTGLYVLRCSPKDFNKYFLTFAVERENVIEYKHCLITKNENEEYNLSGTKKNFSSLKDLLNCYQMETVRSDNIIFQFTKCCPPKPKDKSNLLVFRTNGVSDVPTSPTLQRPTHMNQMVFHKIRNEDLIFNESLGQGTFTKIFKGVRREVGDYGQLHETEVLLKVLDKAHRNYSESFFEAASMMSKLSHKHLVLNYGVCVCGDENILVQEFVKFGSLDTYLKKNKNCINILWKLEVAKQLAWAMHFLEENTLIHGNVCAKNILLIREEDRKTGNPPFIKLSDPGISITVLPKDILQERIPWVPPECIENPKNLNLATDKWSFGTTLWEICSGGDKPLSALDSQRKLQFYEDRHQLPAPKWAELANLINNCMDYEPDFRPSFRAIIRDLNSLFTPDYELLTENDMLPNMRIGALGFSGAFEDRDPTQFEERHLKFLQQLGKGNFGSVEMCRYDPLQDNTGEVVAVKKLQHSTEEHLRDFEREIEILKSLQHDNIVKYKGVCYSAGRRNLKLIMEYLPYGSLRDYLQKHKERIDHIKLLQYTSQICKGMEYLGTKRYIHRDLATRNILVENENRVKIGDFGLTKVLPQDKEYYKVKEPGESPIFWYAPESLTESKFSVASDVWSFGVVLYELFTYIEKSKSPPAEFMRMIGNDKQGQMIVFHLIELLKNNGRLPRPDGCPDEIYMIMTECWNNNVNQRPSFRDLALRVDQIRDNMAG
T6 sequence (P04629 33-796): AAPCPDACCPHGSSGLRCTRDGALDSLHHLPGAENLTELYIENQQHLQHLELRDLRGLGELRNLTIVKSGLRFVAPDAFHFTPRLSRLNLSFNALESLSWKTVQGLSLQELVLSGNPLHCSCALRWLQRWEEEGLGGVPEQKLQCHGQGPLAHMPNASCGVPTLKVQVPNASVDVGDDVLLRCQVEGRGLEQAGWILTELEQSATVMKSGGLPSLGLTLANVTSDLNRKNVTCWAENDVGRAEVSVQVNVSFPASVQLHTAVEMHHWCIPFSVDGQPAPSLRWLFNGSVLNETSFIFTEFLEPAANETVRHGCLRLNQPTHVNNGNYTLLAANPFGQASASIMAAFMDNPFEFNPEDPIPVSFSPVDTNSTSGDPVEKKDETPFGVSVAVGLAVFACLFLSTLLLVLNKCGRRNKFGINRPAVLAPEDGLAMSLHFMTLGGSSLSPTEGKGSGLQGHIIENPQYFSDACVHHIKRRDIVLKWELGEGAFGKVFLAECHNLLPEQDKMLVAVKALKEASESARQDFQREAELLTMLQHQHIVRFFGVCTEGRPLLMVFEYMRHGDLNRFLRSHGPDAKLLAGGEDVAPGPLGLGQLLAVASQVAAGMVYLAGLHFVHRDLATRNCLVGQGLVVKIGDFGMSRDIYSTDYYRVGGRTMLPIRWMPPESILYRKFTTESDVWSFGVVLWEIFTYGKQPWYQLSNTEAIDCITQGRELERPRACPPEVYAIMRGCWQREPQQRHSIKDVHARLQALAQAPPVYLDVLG
T1 sequence (O15264 whole entry): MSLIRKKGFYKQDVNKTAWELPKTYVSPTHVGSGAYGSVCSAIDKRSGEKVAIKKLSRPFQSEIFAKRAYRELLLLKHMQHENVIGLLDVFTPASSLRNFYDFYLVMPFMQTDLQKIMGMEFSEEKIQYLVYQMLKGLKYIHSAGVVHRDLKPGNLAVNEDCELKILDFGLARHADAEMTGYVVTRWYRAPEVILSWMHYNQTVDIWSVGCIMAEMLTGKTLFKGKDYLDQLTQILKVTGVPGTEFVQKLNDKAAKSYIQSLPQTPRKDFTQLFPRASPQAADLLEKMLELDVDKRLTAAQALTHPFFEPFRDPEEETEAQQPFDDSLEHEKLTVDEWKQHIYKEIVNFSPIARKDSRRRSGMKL
T28 sequence (O14757 whole entry): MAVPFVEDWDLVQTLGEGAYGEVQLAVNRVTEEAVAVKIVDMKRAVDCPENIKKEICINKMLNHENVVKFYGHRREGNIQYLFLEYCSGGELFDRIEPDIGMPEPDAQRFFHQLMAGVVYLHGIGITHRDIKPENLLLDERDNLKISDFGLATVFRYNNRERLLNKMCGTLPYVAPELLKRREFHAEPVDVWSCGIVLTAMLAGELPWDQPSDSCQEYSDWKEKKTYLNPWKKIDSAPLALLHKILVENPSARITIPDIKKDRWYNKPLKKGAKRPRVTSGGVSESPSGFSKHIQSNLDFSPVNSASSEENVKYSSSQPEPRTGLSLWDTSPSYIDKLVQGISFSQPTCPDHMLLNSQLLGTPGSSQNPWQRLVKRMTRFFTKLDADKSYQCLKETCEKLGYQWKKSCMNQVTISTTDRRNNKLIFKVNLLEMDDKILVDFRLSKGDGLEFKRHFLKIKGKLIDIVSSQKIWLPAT

Structure (SMILES)	inhibition at 1 µM [1] [%]	inhibition at 1 µM [2] [%]	inhibition at 1 µM [3] [%]	inhibition at 1 µM [4] [%]	inhibition at 1 µM [5] [%]	inhibition at 1 µM [6] [%]	inhibition at 1 µM [7] [%]	inhibition at 1 µM [8] [%]	inhibition at 1 µM [9] [%]	inhibition at 1 µM [10] [%]	inhibition at 1 µM [11] [%]	inhibition at 1 µM [12] [%]	inhibition at 1 µM [13] [%]	inhibition at 1 µM [14] [%]	inhibition at 1 µM [15] [%]	inhibition at 1 µM [16] [%]	inhibition at 1 µM [17] [%]	inhibition at 1 µM [18] [%]	inhibition at 1 µM [19] [%]	inhibition at 1 µM [20] [%]	further results
CC(C)Oc1ccc(F)c(-c2cnc(N)c(C(=O)Nc3cnccc3N3CCC[C@@H](C(=O)O)C3)n2)c1 [GNF4877]	13	49	17	54	97	80	28	95	20	63	31	31	-1	66	97	96	36	42	96	43	inhibition at 0.2 µM ([5]; Conc 200 nM): 0%; inhibition at 0.2 µM ([6]; Conc 200 nM): 19%; inhibition at 0.2 µM ([8]; Conc 200 nM): 67%; inhibition at 0.2 µM ([15]; Conc 200 nM): 71%; inhibition at 0.2 µM ([16]; Conc 200 nM): 35%; inhibition at 0.2 µM ([19]; Conc 200 nM): 26%; inhibition at 1 µM [21]: 52%; inhibition at 1 µM [22]: 54%; inhibition at 0.2 µM ([23]; Conc 200 nM): 2%; inhibition at 1 µM [23]: 95%; inhibition at 1 µM [24]: 67%; inhibition at 1 µM [25]: 51%; inhibition at 1 µM [26]: 44%; inhibition at 1 µM [27]: 51%; inhibition at 1 µM [28]: 43%; inhibition at 1 µM [29]: 45%; inhibition at 0.2 µM ([30]; Conc 200 nM): 6%; inhibition at 1 µM [30]: 101%
Nc1ncc(-c2ccccc2)nc1C(=O)Nc1cnccc1N1CCC(C(=O)O)CC1 [GNF7156]	10	52	50	36	96	92	12	90	46	82	60	2	8	90	96	71	9	83	98	88	inhibition at 1 µM [21]: 25%; inhibition at 1 µM [22]: 29%; inhibition at 1 µM [23]: 92%; inhibition at 1 µM [24]: 39%; inhibition at 1 µM [25]: 29%; inhibition at 1 µM [26]: 71%; inhibition at 1 µM [27]: 24%; inhibition at 1 µM [28]: 12%; inhibition at 1 µM [29]: 43%; inhibition at 1 µM [30]: 102%
